The values below come from article PMC12040169 (PLOS Biology, 2025).

What is called viability is a read-out of living cells in per cent, often relative to untreated cells.

A short description of the first data set: in vitro. The following applies: human, hela cells, % viability.
For `O=C(Nc1ccc2c(c1)nc1n2CCOC1)C1CCCCC1` [CBK307570], the viability at 28.5 h, 10 µM is 90%.

As to `O=C1NC(=O)C(CCCCN2CCCC3(CCN(C(=O)c4cc(F)c(F)cc4F)C3)C2)N1` (centres unmarked) [CBK132020], the viability at 28.5 h, 10 µM turned out to be 97.5%.

Turning to `COc1ccc(CC2CCCN2C(=O)Cn2cncn2)cc1` (centres unmarked) [CBK306351], the viability at 28.5 h, 10 µM worked out at 97.3%.

Consider `CN(C/C=C/c1ccccc1[N+](=O)[O-])CCc1ccccn1` [CBK261890], for which the viability at 28.5 h, 10 µM amounted to 92.5%.

`Nc1nc(SCC(=O)NCc2ccc3c(c2)OCO3)n[nH]1` [CBK266580]: the viability at 28.5 h, 10 µM was determined as 101%.

In the case of `CC1CC(C(F)F)n2nc(C(=O)O)nc2N1` (centres unmarked) [CBK267636], the viability at 28.5 h, 10 µM was 99.7%.

Take `N#Cc1cc2c([nH]c1=S)CCN(Cc1ccccc1)C2` [CBK288378]: the viability at 28.5 h, 10 µM is 90.3%.

With `COc1ccc(C(NC(=O)C2CCN(Cc3ccc(OC)c(OC)c3)CC2)c2ccccc2C)cn1` (centres unmarked) [CBK081452T], the viability at 28.5 h, 10 µM worked out at 99.7%.

Consider `COc1ccc(OC)c(C(C)NC(=O)C2CCN(CCc3cccs3)CC2)c1` (centres unmarked) [CBK148766], for which the viability at 28.5 h, 10 µM was determined as 98.8%.

Regarding `CC(C)(C)c1ccc(C(=O)N2CC(C(=O)O)C2)cc1` [CBK008670], the viability at 28.5 h, 10 µM worked out at 101%.

As to `CN(C)CCNC(=S)Nc1ccc([N+](=O)[O-])cc1` [CBK266964], the viability at 28.5 h, 10 µM amounted to 97.7%.

Turning to `CCC(C)N1CCN(S(=O)(=O)c2ccccc2[N+](=O)[O-])CC1` (centres unmarked) [CBK264270G], the viability at 28.5 h, 10 µM was determined as 97.2%.

Take `CC(=O)N1CC[C@@H](CC(=O)O)[C@@H](CC2=NCCc3ccc(C(C)(C)C)cc32)C1` [CBK289165]: the viability at 28.5 h, 10 µM was found to be 84.4%.

Regarding `O=C(CN(c1ccc(Cl)cc1)S(=O)(=O)c1ccccc1)Nc1ccc2ccccc2c1` [CBK263776], the viability at 28.5 h, 10 µM is 112%.

Take `CCn1c(SCC(=O)NC2CCCCC2C)nnc1-c1cc2cccc(OC)c2o1` (centres unmarked) [CBK267148]: the viability at 28.5 h, 10 µM turned out to be 89.5%.

In the case of `COc1ccc(-n2c(SCCc3ccccc3)nnc2-c2ccncc2)cc1` [CBK265618], the viability at 28.5 h, 10 µM amounted to 85.3%.

For `Cc1cc(NCC2CCCO2)n2nc(C)c(-c3ccccc3)c2n1` (centres unmarked) [CBK304531], the viability at 28.5 h, 10 µM is 90.5%.

Regarding `Oc1cccc(OCCOc2nccnc2N2CCCC2)c1` [CBK115756], the viability at 28.5 h, 10 µM stood at 85.5%.

`CC(C)n1c(=O)n(CCN2CCCCC2)c2cccnc21` [CBK283932]: the viability at 28.5 h, 10 µM turned out to be 95.4%.

On to `CS(=O)(=O)CCNC(=O)c1cnc(-c2ccc(F)cc2)c(-c2ccco2)c1` [CBK037505], for which the viability at 28.5 h, 10 µM came out at 93.1%.

Consider `COc1ccccc1C(=O)Nc1ccc([C@@H](O)[C@H]2COCC(=O)N2)cc1` [CBK289688], for which the viability at 28.5 h, 10 µM came out at 97.3%.

As for `O=C([C@@H]1Cc2[nH]cnc2CN1Cc1cc2ccccc2o1)N1CCOCC1` [CBK288977], the viability at 28.5 h, 10 µM came to 114%.

In the case of `CCOC(=O)c1cn(CC2CC2)c2cc(F)c(F)cc2c1=O` [CBK304195], the viability at 28.5 h, 10 µM is 98.1%.

`COc1cccc2cc(C(=O)NC3CC3)oc12` [CBK149813]: the viability at 28.5 h, 10 µM worked out at 97.8%.

Consider `N#CC1CCCc2c1[nH]c1ccc(Cl)cc21` (centres unmarked) [CBK101438], for which the viability at 28.5 h, 10 µM turned out to be 63.9%.

With `CC(=O)Nc1ccc(S(=O)(=O)N2CCN(Cc3ccccc3[N+](=O)[O-])CC2)cc1` [CBK264170], the viability at 28.5 h, 10 µM was 89.3%.

In the case of `CCOC(=O)N1CCC(NCC(C)(C)CN(C)C)CC1` [CBK028516], the viability at 28.5 h, 10 µM was found to be 96.2%.

As for `COc1cc(CNC(=O)Cn2nnc(-c3ccc(CN4CCC(C)CC4)cc3)n2)cc(OC)c1OC` [CBK144170C], the viability at 28.5 h, 10 µM came out at 96.5%.

For the molecule `CCOc1ccc(-c2cc(C(=O)Nc3cccc(C(=O)O)c3)no2)cc1` [CBK299776], the viability at 28.5 h, 10 µM was 93.9%.

As for `N#Cc1ccccc1N1CCN(c2ccc(-c3ccccc3)cn2)CC1` [CBK037590], the viability at 28.5 h, 10 µM is 97.8%.

As for `O=C(Cn1cccn1)NC(Cc1cccs1)c1nccs1` (centres unmarked) [CBK285136], the viability at 28.5 h, 10 µM was found to be 94.4%.

For the molecule `CCOc1ccc2c(c1)N1C(=O)NC(C(F)(F)F)(C(F)(F)F)N=C1S2` [CBK025440], the viability at 28.5 h, 10 µM was 85.4%.

`CCCC1(C)NC(=O)N(Cc2coc(-c3cccs3)n2)C1=O` (centres unmarked) [CBK305594]: the viability at 28.5 h, 10 µM was 100%.

Regarding `CS(=O)(=O)Nc1ccc(-c2ccccc2)c2ccccc12` [CBK083741], the viability at 28.5 h, 10 µM was 93.2%.

`Cc1nnc(Sc2cc(C(F)(F)F)ccn2)s1` [CBK115215]: the viability at 28.5 h, 10 µM came to 87.6%.

As to `CN(C)c1nc(-c2ccc3c(c2)CCCN3S(C)(=O)=O)cs1` [CBK305016], the viability at 28.5 h, 10 µM was found to be 87.1%.

On to `Cc1ccc(S(=O)(=O)N2C[C@H]3C[C@H](NC(=O)C(C)C)[C@H]3C2)cc1` [CBK285317], for which the viability at 28.5 h, 10 µM was 107%.

In the case of `COc1ccc(CN2C(=O)CC(C(=O)O)S/C2=N\c2ccc(Cl)cc2)cc1` (centres unmarked) [CBK287259], the viability at 28.5 h, 10 µM was 106%.

`CC(C)NC(=O)C[C@@H]1CCNC[C@@H]1Cc1cc(-c2ccccc2)on1` [CBK289147]: the viability at 28.5 h, 10 µM was 83.7%.

For `COc1ccc(S(=O)(=O)N2CC[C@H]3NC(=O)N(c4ccc(C(C)C)cc4)C(=O)[C@H]32)cc1` [CBK289290], the viability at 28.5 h, 10 µM amounted to 107%.

As for `Cn1c(=O)c2c(nc(CN3CCOCC3)n2CCN2CCOCC2)n(C)c1=O` [CBK269560], the viability at 28.5 h, 10 µM was 106%.

In the case of `CCNC(=O)Nc1ccc2c(-c3cccc(C(F)(F)F)c3)ccnc2n1` [CBK070678], the viability at 28.5 h, 10 µM amounted to 93.7%.

Consider `CCCn1c(SCC(=O)NC2CCN(CC)CC2)nc2cc(Cl)ccc21` [CBK305027], for which the viability at 28.5 h, 10 µM is 104%.

Turning to `CC1CC(Nc2ccccc2)c2ccccc2N1C(=O)CCCC(=O)O` (centres unmarked) [CBK286960], the viability at 28.5 h, 10 µM was 89.3%.

For the molecule `CCc1c(C(=O)NC(C)c2cccc(Cl)c2)cnc2cc(O)nn12` (centres unmarked) [CBK291243], the viability at 28.5 h, 10 µM was determined as 95%.

For `O=C(Nc1ccc2n(c1=O)C[C@@H]1CNC[C@H]2C1)c1ccncc1` [CBK289177], the viability at 28.5 h, 10 µM worked out at 107%.

Take `O=C(Nc1cccc(CCc2ccncc2)c1)C1CC(=O)N(Cc2ccncc2)C1` (centres unmarked) [CBK286287]: the viability at 28.5 h, 10 µM stood at 89.6%.

As for `O=C(c1ccccc1Cl)N1N=C(c2cccnc2)CC1c1ccccc1O` (centres unmarked) [CBK269182], the viability at 28.5 h, 10 µM was 102%.

Regarding `CCc1cc(CNC(=O)C(c2ccc(F)cc2)N(C)C)on1` (centres unmarked) [CBK281648], the viability at 28.5 h, 10 µM came out at 88.4%.

With `O=c1nc(O)c2ccccc2s1` [CBK027968], the viability at 28.5 h, 10 µM is 94.9%.

On to `COc1ccc(NC(=O)c2cnn3c2NC(C(=O)O)=CC3c2ccccc2)cc1` (centres unmarked) [CBK287240], for which the viability at 28.5 h, 10 µM amounted to 101%.

As to `Cc1ccc(NC(=O)COc2ccccc2)c(NC(=O)c2ccco2)c1` [CBK266809], the viability at 28.5 h, 10 µM is 95.6%.

Regarding `CC(C)C(=O)N1CC2(CCN(Cc3nc4ccccc4[nH]3)CC2)c2ccccc21` [CBK126719], the viability at 28.5 h, 10 µM is 110%.

Regarding `O=C1CCC(N2CCN(c3ncnc4ccccc34)CC2)CCN1` (centres unmarked) [CBK304393], the viability at 28.5 h, 10 µM is 96.8%.

On to `COc1ccc(CNC(=O)C2CCCN(c3nc4c(-c5ccccc5)csc4c(=O)[nH]3)C2)cc1` (centres unmarked) [CBK215464], for which the viability at 28.5 h, 10 µM came out at 95.2%.

With `Cn1c(=N)n(CC(=O)O)c2ccccc21` [CBK262926B], the viability at 28.5 h, 10 µM was found to be 90.4%.

`Cc1nc2ccc(C(=O)N(C)Cc3ccco3)cn2c1N(C)C=O` [CBK145482]: the viability at 28.5 h, 10 µM was 99%.

On to `Nc1ncnc2c1nc(SCc1ccccc1)n2Cc1ccccc1` [CBK288181], for which the viability at 28.5 h, 10 µM stood at 90.9%.

Consider `CCOc1ccc(CC(=O)N2CCCc3c(cnn3C)C2)cc1` [CBK285325], for which the viability at 28.5 h, 10 µM came out at 101%.

Regarding `Cc1ccc(S(=O)(=O)Nc2ccc(Nc3cc(-c4cccc5oc6ccccc6c45)ncn3)cc2)cc1` [CBK090977], the viability at 28.5 h, 10 µM came to 91.1%.

Take `Cc1nn(Cc2ccccc2)c(C)c1CC(=O)NCCn1ccnc1` [CBK282095]: the viability at 28.5 h, 10 µM was found to be 107%.

Take `N#Cc1ccc(CN2CCCN(C(=O)c3cccc(F)c3)CC2)cc1` [CBK304010]: the viability at 28.5 h, 10 µM stood at 96.2%.

Turning to `Cc1nnc2nc(-c3ccc(Cl)cc3Cl)[nH]n12` [CBK027731], the viability at 28.5 h, 10 µM amounted to 88.1%.

Consider `OCc1cc(Cl)c(Cl)c(CO)c1O` [CBK269397], for which the viability at 28.5 h, 10 µM is 95.5%.

Regarding `O=C(c1ccc2[nH]nnc2c1)N1CCN(S(=O)(=O)Cc2ccccc2)CC1` [CBK295346], the viability at 28.5 h, 10 µM was found to be 79.3%.

On to `CN(C)CCCO/N=C(\c1ccccc1)c1ccncc1` [CBK261464G], for which the viability at 28.5 h, 10 µM was 95.3%.

Turning to `Cc1c(C(=O)Nc2ccncc2)nnn1-c1cccc(C(F)(F)F)c1` [CBK107390], the viability at 28.5 h, 10 µM worked out at 102%.

Consider `CCC1C(=O)NCCN1C(=O)Cc1cccc2cccnc12` (centres unmarked) [CBK281728], for which the viability at 28.5 h, 10 µM is 104%.

For `Cc1cc(C(=O)N2CCC(c3nnc(CN(C)C)n3C)CC2)ccc1F` [CBK306748], the viability at 28.5 h, 10 µM is 95.5%.

On to `O=c1c2c3nc4ccccc4nc3n(CCc3ccccc3)c2ncn1C1CCCC1` [CBK269464], for which the viability at 28.5 h, 10 µM is 105%.

With `COC(=O)CCCNS(=O)(=O)c1ccc([N+](=O)[O-])cc1` [CBK261172], the viability at 28.5 h, 10 µM turned out to be 109%.

Regarding `COCC(=O)N1CCN2C(=O)N(Cc3ccccc3)C(=O)[C@H]2C1` [CBK289641], the viability at 28.5 h, 10 µM stood at 91.4%.

On to `Cc1nc2c(C)cccc2c(O)c1CN1CCCCCC1` [CBK264512], for which the viability at 28.5 h, 10 µM is 98.1%.

As to `O=C(Nn1cnnc1)c1ccc(C(=O)Nn2cnnc2)cc1` [CBK261111], the viability at 28.5 h, 10 µM came to 101%.

As to `CC(=O)Nc1nc(C(=O)N2CCOC(c3ccc(F)cc3)C2)cs1` (centres unmarked) [CBK244238], the viability at 28.5 h, 10 µM came out at 99.3%.

Turning to `O=C(O)C(Cc1cc2ccccc2[nH]1)N1C(=O)C2CC=C(Cl)CC2C1=O` (centres unmarked) [CBK266216], the viability at 28.5 h, 10 µM was determined as 94.2%.

On to `CN1CCC(N(C)C(=O)NCC2COc3ccccc3O2)C1` (centres unmarked) [CBK155994], for which the viability at 28.5 h, 10 µM amounted to 100%.

On to `Cc1ccc(-c2nc3ccccc3[nH]2)cc1NC(=O)COc1cccc([N+](=O)[O-])c1` [CBK265932], for which the viability at 28.5 h, 10 µM is 94.3%.

The data set is the same for the next values; noted with them: human, hela cells, % viability, bulk resorufin, single well.
For `CN1C(=O)CC(c2ccccc2)Nc2ccccc21` (centres unmarked) [CBK086373C], the viability at 28.5 h, 10 µM is 103%.

In the case of `O=C1NC(=O)N(c2ccc(Cl)cc2)C(=O)/C1=C\NCCCO` [CBK261648], the viability at 28.5 h, 10 µM was 90.2%.
